Reference: patent US8802597B2, “Herbicidal pyrimidines” (E I du Pont de Nemours and Company, priority 2003, dated 2014)

Assays:
Type in all cases: in vivo
[1] = system: Canada horseweed (Conyza canadensis); assay: Test G pre/postemergence
Summary of the method: (§1)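 Test chemicals in a non-phytotoxic solvent blend with surfactant are applied to soil after seeding or to foliage of 2–18 cm seedlings. Greenhouse response is scored visually at 12–21 days on a 0 to 100 control scale.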

[2] = system: Russian thistle (Salsola kali); assay: Test G pre/postemergence
Summary of the method: as §1

[3] = system: common groundsel (Senecio vulgaris); assay: Test G pre/postemergence
Summary of the method: as §1

[4] = system: grape (Vitus vinifera) vines; assay: Test G post-directed application; settings: 1500 g ai/ha, scale 0 to 100
Description: (§2) At a different time, established container-grown grape (Vitus vinifera) vines, and olive (Olea europaea) and orange (Citrus sinensis) trees were treated with some of the test chemicals formulated in the same manner and applied to the soil surface and the lower 5 cm of the plant vines or trunks (post-directed application). Plants ranged in height from 30 to 100 cm. The applications were made using a hand sprayer delivering a volume of 990 L/ha. Treated plants and controls were maintained in a greenhouse for 28 days, after which time the treated plants were compared to controls and visually evaluated.
(§3) Plant response ratings, summarized in Table G, are based on a scale of 0 to 100 where 0 is no effect and 100 is complete control. A dash (-) response means no test result.

[5] = system: olive (Olea europaea) trees; assay: Test G post-directed application; settings: 1500 g ai/ha, scale 0 to 100
Description: as §2, §3

[6] = system: orange (Citrus sinensis) trees; assay: Test G post-directed application; settings: 1500 g ai/ha, scale 0 to 100
Description: as §2, §3

[7] = system: sulfonylurea herbicide-resistant (SU-resistant) catchweed bedstraw (GALAP; Galium aparine); assay: Test K postemergence; settings: 15 days
Description: (§4) Seeds of plant species selected from sulfonylurea herbicide-susceptible (SU-susceptible) and sulfonylurea herbicide-resistant (SU-resistant) catchweed bedstraw (GALAP; Galium aparine) and wheat (TRZAW; Triticum aestivum) were treated with postemergence applications of test chemicals formulated in a non-phytotoxic solvent mixture which included a surfactant. Plants were treated at the 2-3 leaf stage and 2 whorl stage for wheat and catchweed bedstraw, respectively. Treated plants and controls were maintained in a controlled growth environment for 15 days after which time all species were compared to controls and visually evaluated. Plant response ratings, summarized in Table K, are based on a scale of 0 to 100 where 0 is no effect and 100 is complete control. A dash (-) response means no test result.

[8] = system: sulfonylurea herbicide-susceptible (SU-susceptible) catchweed bedstraw (GALAP; Galium aparine); assay: Test K postemergence; settings: 15 days
Description: as §4

[9] = system: wheat (TRZAW; Triticum aestivum); assay: Test K postemergence; settings: 15 days
Description: as §4

[10] = Postemergence, 250 g ai/ha, scale 0 to 100
[11] = Postemergence, 500 g ai/ha, scale 0 to 100
[12] = Postemergence, 125 g ai/ha, scale 0 to 100
[13] = Postemergence, 375 g ai/ha, scale 0 to 100
[14] = Preemergence, 62 g ai/ha, scale 0-100
[15] = Preemergence, 125 g ai/ha, scale 0-100
[16] = Preemergence, 250 g ai/ha, scale 0-100
[17] = Preemergence, 500 g ai/ha, scale 0 to 100
[18] = Preemergence, 375 g ai/ha, scale 0 to 100
[19] = Postemergence, 62 g ai/ha, scale 0 to 100

For `CCOC(=O)c1nc(C2CC2)nc(N)c1Br` [Compound 1, ethyl 6-amino-5-bromo-2-cyclopropyl-4-pyrimidinecarboxylate], which “Plant response rating, Horseweed” value [1, 10] is on record?
Its value is 100.

And the “Plant response rating, Horseweed” value [1, 11]?
Its value is 100.

And the “Plant response rating, Horseweed” value [1, 12]?
The value was 70.

What about the “Plant response rating, Horseweed” value [1, 13] of the same compound?
Its value is 100.

What about the “Plant response rating, Horseweed” value [1, 14] of the same compound?
Its value is 95.

And the “Plant response rating, Horseweed” value [1, 15]?
The value was 95.

What about the “Plant response rating, Horseweed” value [1, 16] of the same compound?
Its value is 100.

And the “Plant response rating, Horseweed” value [1, 17]?
The value was 100.

What about the “Plant response rating, Horseweed” value [1, 18] of the same compound?
The value was 100.

What about the “Plant response rating, Russian Thistle” value [2, 10] of the same compound?
Its value is 100.

And the “Plant response rating, Russian Thistle” value [2, 19]?
Its value is 100.

What about the “Plant response rating, Russian Thistle” value [2, 12] of the same compound?
The value was 100.

And the “Plant response rating, Russian Thistle” value [2, 13]?
Its value is 100.

And the “Plant response rating, Russian Thistle” value [2, 14]?
Its value is 100.

And the “Plant response rating, Russian Thistle” value [2, 15]?
Its value is 100.

What about the “Plant response rating, Russian Thistle” value [2, 16] of the same compound?
The value was 100.

And the “Plant response rating, Russian Thistle” value ([2]; Preemergence, 500 g ai/ha, scale 0-100)?
The value was 100.

And the “Plant response rating, Russian Thistle” value [2, 17]?
Its value is 100.

And the “Plant response rating, Groundsel” value [3, 10]?
The value was 95.

And the “Plant response rating, Groundsel” value [3, 11]?
The value was 100.

And the “Plant response rating, Groundsel” value [3, 19]?
The value was 60.

What about the “Plant response rating, Groundsel” value [3, 12] of the same compound?
Its value is 95.

What about the “Plant response rating, Groundsel” value [3, 13] of the same compound?
Its value is 100.

And the “Plant response rating, Groundsel” value [3, 14]?
Its value is 60.

And the “Plant response rating, Groundsel” value [3, 15]?
The value was 100.

What about the “Plant response rating, Groundsel” value [3, 16] of the same compound?
Its value is 100.

And the “Plant response rating, Groundsel” value [3, 17]?
The value was 100.

What about the “Plant response rating, Groundsel” value [3, 18] of the same compound?
The value was 100.

What about the “Plant response rating, Grape” value [4] of the same compound?
The value was 100.

What about the “Plant response rating, Olive” value [5] of the same compound?
Its value is 50.

And the “Plant response rating, Orange” value [6]?
The value was 50.

And the “Plant response rating (0 to 100 scale)” value ([7]; 4 g a.i./ha)?
The value was 100.

And the “Plant response rating (0 to 100 scale)” value ([7]; 8 g a.i./ha)?
The value was 100.

What about the “Plant response rating (0 to 100 scale)” value ([7]; 16 g a.i./ha) of the same compound?
Its value is 100.

And the “Plant response rating (0 to 100 scale)” value ([7]; 31 g a.i./ha)?
The value was 100.

And the “Plant response rating (0 to 100 scale)” value ([7]; 62 g a.i./ha)?
Its value is 100.

And the “Plant response rating (0 to 100 scale)” value ([7]; 125 g a.i./ha)?
Its value is 100.

And the “Plant response rating (0 to 100 scale)” value ([8]; 4 g a.i./ha)?
The value was 63.

What about the “Plant response rating (0 to 100 scale)” value ([8]; 8 g a.i./ha) of the same compound?
The value was 80.

What about the “Plant response rating (0 to 100 scale)” value ([8]; 16 g a.i./ha) of the same compound?
Its value is 98.

And the “Plant response rating (0 to 100 scale)” value ([8]; 31 g a.i./ha)?
The value was 98.

What about the “Plant response rating (0 to 100 scale)” value ([8]; 62 g a.i./ha) of the same compound?
The value was 100.

And the “Plant response rating (0 to 100 scale)” value ([8]; 125 g a.i./ha)?
The value was 100.

And the “Plant response rating (0 to 100 scale)” value ([9]; 4 g a.i./ha)?
The value was 0.

And the “Plant response rating (0 to 100 scale)” value ([9]; 8 g a.i./ha)?
The value was 0.

And the “Plant response rating (0 to 100 scale)” value ([9]; 16 g a.i./ha)?
Its value is 0.

And the “Plant response rating (0 to 100 scale)” value ([9]; 31 g a.i./ha)?
Its value is 25.

And the “Plant response rating (0 to 100 scale)” value ([9]; 62 g a.i./ha)?
The value was 30.

What about the “Plant response rating (0 to 100 scale)” value ([9]; 125 g a.i./ha) of the same compound?
Its value is 38.
